Measured values from patent US20020068274A1, “Novel method for assessing recoding in vitro and in vivo” (priority 2000, published 2002).

How the values were obtained:
antizyme = settings: cited from earlier work
transformed cell lines = settings: cited from earlier work
[1] = molecular target: Ova257-264-specific B3Z hybridoma; assay: β-galactosidase-based T hybridoma stimulation assay; design: species or system mouse; settings: L-Kb cells infected with rVV at 10 pfu/cell or pulsed with peptide 10^-9 M; FIGS. 4, 5
From the text: FIG. 4. The TK frameshifting element directs expression and in vitro presentation of Ova257-264 that has been shifted to RF+1. The TK frameshifting element was inserted into the SphI site of NP/Ova257-264, shifiting all downstream NP/Ova257-264-encoding sequence, including Ova257-264, into RF+1 (TK-FS). Negative and positive control TK sequences (TK-NC, and TK-IF respectively) were also inserted. L-K^b cells were infected overnight with rVVs expressing these three constructs, along with a negative control VV (VV-NC). […]
Assays for epitope expression based upon use of the B3Z T hybridoma that produces β-galactosidase upon activation, have been described previously (Wherry, et al, J. Immunol 163, no. 7:3735, 1999). […] After overnight incubation, β-galactosidase production was assessed using the fluorogenic substrate methyl umbelliferone-βgalactoside as described by Sanderson and Shastri (Sanderson and N. Shastri, Internal Immunology 158:3227, 1997).
The frameshifting element derived from the mutant (TK-FS), as well as control sequences, in which the G run required for frameshifting was deleted (TK-NC), were tested following insertion into the SphI site of the NP/Ova257-264 construct (see FIG. 2) and recognition of Ova257-264 was monitored. […]

Compound	polyamine levels (antizyme)	antizyme expression (antizyme; via effect on +1 frameshifting)	growth of transformed cell lines (transformed cell lines)	Kb/Ova257-264-specific recognition (β-galactosidase production by B3Z versus BWZ) [1]
N=C(N)NCCCCN [agmatine]	lowered polyamine levels	capable of stimulating antizyme expression	growth inhibition of transformed cell lines	
Ova257-264: synthetic version of the H-2Kb-restricted epitope within ovalbumin (ESIINFEK; UniProt P01012 257-264, looked up, fragment)				strong specific response
